Measured values reported in the supplement of paper PMC10307832.

Experiments:
Test in all cases: relative viability (nuclei count vs DMSO), 5 days (fraction); higher = more cells survive
MK-8033 + Alpelisib = compound: Cn1cc(-c2cnc3ccc4ccc(CS(=O)(=O)NCc5ccccn5)cc4c(=O)c3c2)cn1 [MK-8033] + Cc1nc(NC(=O)N2CCC[C@H]2C(N)=O)sc1-c1ccnc(C(C)(C)C(F)(F)F)c1 [Alpelisib] (partner 2 µM)
Outline: (§1)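 The day after seeding in 1536-well plates, lung cancer cell lines were treated by pin tool with a single drug, or with a fixed anchor-drug dose together with five library-drug doses (not always all listed) in √10 steps. After 5 days, a combined fix-and-stain solution (final 0.05% Triton X-100, 1% formaldehyde, 1 ug/ml Hoechst) was added. Nuclei counted on 4× images gave relative viability as treated counts over vehicle counts, reported as the median of duplicate plates.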

RU-SKI 43 + Pemetrexed = compound: CC[C@@H](C)CNCC(=O)N1CCC2=C([C@@H]1COC3=CC=CC(=C3)C)C=CS2 [RU-SKI 43] + Nc1nc2[nH]cc(CCc3ccc(C(=O)N[C@@H](CCC(=O)O)C(=O)O)cc3)c2c(=O)[nH]1 [Pemetrexed] (partner 0.2 µM)
Outline: as §1

MK-8033 + Decitabine = compound: Cn1cc(-c2cnc3ccc4ccc(CS(=O)(=O)NCc5ccccn5)cc4c(=O)c3c2)cn1 [MK-8033] + Nc1ncn([C@H]2C[C@H](O)[C@@H](CO)O2)c(=O)n1 [Decitabine] (partner 2 µM)
Outline: as §1

RU-SKI 43 + Trametinib = compound: CC[C@@H](C)CNCC(=O)N1CCC2=C([C@@H]1COC3=CC=CC(=C3)C)C=CS2 [RU-SKI 43] + CC(=O)Nc1cccc(-n2c(=O)n(C3CC3)c(=O)c3c(Nc4ccc(I)cc4F)n(C)c(=O)c(C)c32)c1 [Trametinib] (partner 0.02 µM)
Outline: as §1

| Cell Line | relative viability (MK-8033 + Alpelisib; first compound 0.02 µM) | relative viability (MK-8033 + Alpelisib; first compound 0.06325 µM) | relative viability (MK-8033 + Alpelisib; first compound 0.2 µM) | relative viability (MK-8033 + Alpelisib; first compound 0.6325 µM) | relative viability (MK-8033 + Alpelisib; first compound 2 µM) | relative viability (RU-SKI 43 + Pemetrexed; first compound 0.1 µM) | relative viability (RU-SKI 43 + Pemetrexed; first compound 0.3162 µM) | relative viability (RU-SKI 43 + Pemetrexed; first compound 1 µM) | relative viability (RU-SKI 43 + Pemetrexed; first compound 3.162 µM) | relative viability (RU-SKI 43 + Pemetrexed; first compound 10 µM) | relative viability (MK-8033 + Decitabine; first compound 0.02 µM) | relative viability (MK-8033 + Decitabine; first compound 0.06325 µM) | relative viability (MK-8033 + Decitabine; first compound 0.2 µM) | relative viability (MK-8033 + Decitabine; first compound 0.6325 µM) | relative viability (MK-8033 + Decitabine; first compound 2 µM) | relative viability (RU-SKI 43 + Trametinib; first compound 0.1 µM) | relative viability (RU-SKI 43 + Trametinib; first compound 0.3162 µM) | relative viability (RU-SKI 43 + Trametinib; first compound 1 µM) | relative viability (RU-SKI 43 + Trametinib; first compound 3.162 µM) | relative viability (RU-SKI 43 + Trametinib; first compound 10 µM) |
| --- | --- | --- | --- | --- | --- | --- | --- | --- | --- | --- | --- | --- | --- | --- | --- | --- | --- | --- | --- | --- |
| NCI-H460 | 0.496 | 0.368 | 0.348 | 0.4 | 0.435 | 0.0581 | 0.0578 | 0.0612 | 0.0618 | 0.0606 | 0.525 | 0.439 | 0.446 | 0.451 | 0.475 | 0.224 | 0.2 | 0.141 | 0.197 | 0.0732 |
| LCLC-103H | 1.07 | 0.872 | 0.94 | 0.942 | 0.959 | 0.469 | 0.464 | 0.482 | 0.492 | 0.5 | 0.699 | 0.724 | 0.673 | 0.736 | 0.766 | 0.689 | 0.755 | 0.726 | 0.677 | 0.724 |
| SK-LU-1 | 1 | 1.04 | 0.806 | 1.02 | 0.988 | 0.969 | 1.16 | 1.07 | 1.04 | 0.939 | 0.545 | 0.539 | 0.559 | 0.638 | 0.657 | 0.43 | 0.495 | 0.492 | 0.49 | 0.385 |
| 201T | 1.11 | 0.946 | 0.976 | 1.05 | 1.04 | 0.374 | 0.311 | 0.307 | 0.358 | 0.321 | 0.9 | 0.868 | 0.851 | 0.873 | 0.876 | 0.709 | 0.717 | 0.776 | 0.789 | 0.749 |
| NCI-H441 | 0.853 | 0.643 | 0.648 | 0.709 | 0.67 | 0.28 | 0.273 | 0.277 | 0.255 | 0.219 | 0.237 | 0.237 | 0.231 | 0.264 | 0.238 | 0.483 | 0.426 | 0.552 | 0.45 | 0.265 |
| SW 1573 | 0.817 |  | 0.698 | 0.687 | 0.719 | 0.674 | 0.942 | 0.991 | 0.867 | 0.759 | 0.528 | 0.467 | 0.524 | 0.502 | 0.474 | 0.586 | 0.591 | 0.584 | 0.567 | 0.39 |
| HOP-62 | 0.987 | 0.75 | 1.05 | 0.956 | 0.938 | 0.327 | 0.292 | 0.344 | 0.334 | 0.284 | 0.222 | 0.234 | 0.261 | 0.189 | 0.199 | 0.358 | 0.428 | 0.374 | 0.405 | 0.314 |
| NCI-H1651 | 0.888 | 0.808 | 0.931 | 0.898 | 0.982 | 0.556 | 0.701 | 0.744 | 0.557 | 0.59 | 0.706 | 0.606 | 0.653 | 0.694 | 0.649 | 0.793 | 0.876 | 0.966 | 0.893 | 0.835 |
| NCI-H2126 | 0.749 | 0.731 | 0.763 | 0.772 | 0.702 | 0.724 | 0.745 | 0.682 | 0.739 | 0.709 | 0.593 | 0.561 | 0.565 | 0.568 | 0.593 | 0.56 | 0.605 | 0.506 | 0.607 | 0.559 |
| NCI-H650 | 1.08 | 1.1 | 1.01 | 1.16 | 1.17 | 0.907 | 0.962 |  | 0.879 | 0.932 | 0.335 | 0.329 | 0.306 | 0.323 | 0.323 | 0.905 | 0.931 |  | 1.05 | 0.96 |
| COR-L 105 | 0.822 | 1.07 | 0.962 | 0.928 | 0.733 | 1.11 | 1.12 | 1.17 | 1.04 | 1.03 | 0.659 | 0.556 | 0.619 | 0.689 | 0.691 | 0.404 | 0.334 | 0.41 | 0.414 | 0.397 |
| LK-2 | 1.22 | 1.04 | 1.02 | 1.17 | 1 | 0.362 | 0.343 | 0.347 | 0.245 | 0.304 | 0.299 | 0.3 | 0.322 | 0.339 | 0.343 | 0.766 | 1.01 | 0.915 | 0.828 | 0.736 |
| NCI-H2347 | 1.05 | 0.991 | 1.02 | 1.03 | 0.975 | 0.404 | 0.513 | 0.431 | 0.52 | 0.538 | 0.548 | 0.608 | 0.571 | 0.54 | 0.685 | 0.293 | 0.275 | 0.388 | 0.289 | 0.302 |
| PC-14 | 0.888 | 0.878 | 0.87 | 0.898 | 0.804 | 0.132 | 0.13 | 0.133 | 0.151 | 0.13 | 0.214 | 0.176 | 0.225 | 0.212 | 0.183 | 0.637 | 0.824 | 0.82 | 0.652 | 0.533 |
| NCI-H1793 | 0.608 |  | 0.54 | 0.603 | 0.816 | 1.01 | 0.995 | 0.941 | 0.772 | 1.02 | 0.486 |  | 0.51 | 0.379 | 0.543 | 0.439 | 0.386 | 0.435 | 0.473 | 0.479 |
| NCI-H2170 | 0.652 | 0.758 | 0.691 | 0.773 | 0.772 | 0.251 | 0.297 | 0.262 | 0.275 | 0.243 | 0.461 | 0.405 | 0.458 | 0.479 | 0.468 | 0.975 | 1.39 | 1.04 | 0.908 | 0.946 |
